Test results reported in paper PMC7497086, “Fluorophore‐Labeled Cyclic Nucleotides as Potent Agonists of Cyclic Nucleotide‐Regulated Ion Channels” (Chembiochem, 2020).
Values joined by “and” are separate entries in the source; they are usually repeats but may differ in a detail not shown here. Equal entries are not always repeated. “Also recorded” adds a separate entry of the source.

Columns and labels:
Type in all cases: biochemical
[1] = target: T1, homotetrameric HCN2 channels (Mus musculus, UniProt O88703); assay: Patch-clamp activation of homotetrameric HCN2 channels, inside-out patches of Xenopus oocytes; conditions: 5 μM ligand; pulse from -30 mV to -130 mV; compared with saturating cAMP (20 μM)
T1 construct: expressed in transfected cells; host or cells: Xenopus laevis oocytes injected with HCN2 cRNA
T1 sequence (O88703 1-863): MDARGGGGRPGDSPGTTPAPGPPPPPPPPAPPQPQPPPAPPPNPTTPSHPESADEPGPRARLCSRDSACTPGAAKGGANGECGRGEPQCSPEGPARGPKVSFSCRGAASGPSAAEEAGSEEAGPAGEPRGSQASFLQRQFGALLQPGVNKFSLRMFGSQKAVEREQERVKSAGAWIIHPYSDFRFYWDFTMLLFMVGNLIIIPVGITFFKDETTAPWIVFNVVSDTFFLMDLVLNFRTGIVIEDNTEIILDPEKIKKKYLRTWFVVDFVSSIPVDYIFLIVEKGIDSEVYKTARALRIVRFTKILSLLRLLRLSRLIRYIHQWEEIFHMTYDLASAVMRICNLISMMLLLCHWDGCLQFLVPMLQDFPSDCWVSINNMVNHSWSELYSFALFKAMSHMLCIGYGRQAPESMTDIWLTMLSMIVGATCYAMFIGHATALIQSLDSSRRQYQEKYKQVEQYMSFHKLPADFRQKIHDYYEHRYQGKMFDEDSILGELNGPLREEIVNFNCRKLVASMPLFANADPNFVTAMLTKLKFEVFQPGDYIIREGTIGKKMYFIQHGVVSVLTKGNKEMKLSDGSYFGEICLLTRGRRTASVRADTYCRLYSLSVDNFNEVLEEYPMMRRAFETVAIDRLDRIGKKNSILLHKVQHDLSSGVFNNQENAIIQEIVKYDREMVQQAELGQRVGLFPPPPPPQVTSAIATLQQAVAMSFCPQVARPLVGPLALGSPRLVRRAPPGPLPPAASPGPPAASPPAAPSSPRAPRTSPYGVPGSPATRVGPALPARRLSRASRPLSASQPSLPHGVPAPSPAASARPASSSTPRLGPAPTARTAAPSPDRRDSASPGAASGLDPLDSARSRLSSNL
Protocol: On these channels the potency of cGMP and its derivatives is negligibly small. These measurements were performed in inside‐out patches as well. The channels were activated from a holding potential of −30 mV by a hyperpolarizing voltage pulse to −130 mV, followed by a short pulse to −100 mV, as described in the inset of Figure 3A. All recordings were carried out in the absence of a ligand at first and then with a solution containing 5 μM of the cyclic nucleotide to be tested.
(§1) Molecular biology and heterologous expression of CNG and HCN channels: The subunits CNGA2 (accession No. AF126808), CNGA4 (accession no. U12623) and CNGB1b (accession no. AF068572) of rat olfactory channels as well as mouse HCN2 channels (NM008226) were subcloned in front of the T7 promoter of pGEMHEnew. The corresponding cRNAs were produced with the mMESSAGE mMACHINE T7 Kit (Ambion, Austin, TX, USA).
The oocytes were incubated for 105 min in Ca^2+‐free Barth's solution containing collagenase A (3 mg/mL; Roche, Grenzach‐Wyhlen, Germany) and (in mM) 82.5 NaCl, 2 KCl, 1 MgCl2, 5 HEPES, pH 7.4. […]
Electrophysiology: Macroscopic currents were recorded in inside‐out patches of the oocytes expressing hundreds to several thousand of the desired channels by using the patch‐clamp technique. […]

[2] = target: T2, Heterotetrameric CNGA2:A4:B1b channels (Rattus norvegicus, UniProt A0A8I5ZN27+Q00195+Q64359); assay: Patch-clamp activation of heterotetrameric olfactory CNGA2:A4:B1b channels, inside-out patches of Xenopus oocytes; conditions: for H a (Hill coefficient of activation) / EC50: inside-out patches, +10 mV; for EC50: concentration of half maximum activation
T2 construct: expressed in transfected cells; host or cells: Xenopus laevis oocytes injected with cRNA (CNGA2:CNGA4:CNGB1b at 2:1:1)
Protocol: First, the effect of the compounds on olfactory CNG channels with natural composition was tested. […] To determine the potency of the ligands, full concentration‐activation relationships were generated. These relationships were fitted with Equation 1 (Experimental Section), yielding the concentration of half maximum activation (EC 50) and the Hill coefficient (H a).
as §1
(§2) Oocytes at stages IV and V were injected with 50–130 ng cRNA encoding either CNGA2, CNGA2 : CNGA4 : CNGB1b (2 : 1 : 1 ratio) or HCN2 channels either manually or mediated by an injection robot (RoboInject®). The injected oocytes were incubated at 18 °C for up to 6 days in Barth's medium containing (in mM) 84 NaCl, 1 KCl, 2.4 NaHCO3, 0.82 MgSO4, 0.41 CaCl2, 0.33 Ca(NO3)2, 7.5 TRIS, cefuroxime (4.0 μg/mL) and penicillin/streptomycin (100 μg/mL), pH 7.4.
(§3) Electrophysiology: Macroscopic currents were recorded in inside‐out patches of the oocytes expressing hundreds to several thousand of the desired channels by using the patch‐clamp technique. The patch pipettes were pulled from quartz tubing (P‐2000, Sutter Instrument, Novato, USA) with an outer and inner diameter of 1.0 and 0.7 mm (VITROCOM, New Jersey, USA). The corresponding pipette resistance was 0.9–2.3 MΩ. The bath and pipette solution contained (in mM): 150 KCl, 1 EGTA, 20 HEPES (pH 7.4) for CNG channel measurements. For HCN channel measurements the bath solution contained (in mM): 100 KCl, 10 EGTA, 10 HEPES (pH 7.2) and the pipette (in mM) 120 KCl, 10 HEPES, 1 CaCl2 (pH 7.2). All experiments were performed at room temperature by using an Axopatch 200B amplifier (Axon Instruments, Foster City, CA, USA). Electrophysiology was controlled by the Patchmaster‐software (HEKA Elektronik Dr. Schulze GmbH, Lambrecht, Germany). The sampling rate was 5 kHz and the filter implemented in the amplifier (4‐pole Bessel) was set to 2 kHz. Measurements in HCN2 channels were started 3.5 minutes after patch excision, to minimize run down phenomena.18 The solutions with the different ligand concentrations to be studied were applied by a multi‐barrel device to the patches with a flow rate of 0.8 to 1.2 mL/min. The concentration of the fluorescent ligands was verified by UV/Vis spectroscopy.
(§4) where I is the actual current amplitude and I max the maximum current amplitude at saturating concentration of each cyclic nucleotide. EC 50 is the ligand concentration generating half maximum current and H a the respective Hill coefficient.

[3] = target: T3, Homotetrameric CNGA2 channels (Rattus norvegicus, UniProt Q00195); assay: Patch-clamp activation of homotetrameric CNGA2 channels, inside-out patches of Xenopus oocytes; conditions: for H a (Hill coefficient of activation) / EC50: inside-out patches; for EC50: concentration of half maximum activation
T3 construct: expressed in transfected cells; host or cells: Xenopus laevis oocytes injected with CNGA2 cRNA
T3 sequence (Q00195 1-664): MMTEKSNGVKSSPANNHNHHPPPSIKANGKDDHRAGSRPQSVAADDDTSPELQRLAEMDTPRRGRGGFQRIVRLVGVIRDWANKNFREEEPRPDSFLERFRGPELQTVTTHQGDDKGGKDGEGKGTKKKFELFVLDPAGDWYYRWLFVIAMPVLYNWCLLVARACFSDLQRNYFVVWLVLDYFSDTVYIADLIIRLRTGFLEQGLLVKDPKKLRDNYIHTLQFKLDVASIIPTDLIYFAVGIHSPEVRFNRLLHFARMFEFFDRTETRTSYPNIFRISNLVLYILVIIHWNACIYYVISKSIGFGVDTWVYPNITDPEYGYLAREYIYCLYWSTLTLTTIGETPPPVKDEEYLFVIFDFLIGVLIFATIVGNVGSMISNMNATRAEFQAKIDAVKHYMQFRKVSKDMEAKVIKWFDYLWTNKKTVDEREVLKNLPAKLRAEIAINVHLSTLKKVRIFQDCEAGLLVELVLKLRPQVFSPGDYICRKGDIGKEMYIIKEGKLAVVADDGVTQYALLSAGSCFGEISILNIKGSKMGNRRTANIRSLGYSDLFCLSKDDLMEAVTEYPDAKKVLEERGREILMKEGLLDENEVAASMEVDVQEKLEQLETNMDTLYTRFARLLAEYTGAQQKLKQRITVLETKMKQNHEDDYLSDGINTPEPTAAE
From the text: Moreover, we studied the effect of the nucleotide derivatives on homotetrameric CNGA2 channels.
as §1, §2, §3, §4

T2 sequence (Q64359 whole entry, one chain of several): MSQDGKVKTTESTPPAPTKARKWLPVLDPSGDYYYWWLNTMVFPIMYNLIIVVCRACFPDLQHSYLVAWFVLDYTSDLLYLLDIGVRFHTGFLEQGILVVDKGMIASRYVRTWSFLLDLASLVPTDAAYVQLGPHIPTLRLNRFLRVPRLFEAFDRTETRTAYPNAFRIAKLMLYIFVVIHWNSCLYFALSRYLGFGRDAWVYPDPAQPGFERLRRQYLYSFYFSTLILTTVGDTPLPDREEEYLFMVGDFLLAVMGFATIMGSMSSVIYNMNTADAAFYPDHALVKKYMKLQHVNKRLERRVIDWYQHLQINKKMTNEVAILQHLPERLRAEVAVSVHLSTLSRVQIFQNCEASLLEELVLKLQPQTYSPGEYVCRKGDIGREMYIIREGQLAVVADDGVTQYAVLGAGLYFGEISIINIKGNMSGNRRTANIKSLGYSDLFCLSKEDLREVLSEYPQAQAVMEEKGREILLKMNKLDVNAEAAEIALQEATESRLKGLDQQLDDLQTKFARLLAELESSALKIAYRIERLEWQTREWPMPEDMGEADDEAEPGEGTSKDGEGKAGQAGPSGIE
T2 sequence (A0A8I5ZN27 1-858 isoform A0A8I5ZN27-2, one chain of several): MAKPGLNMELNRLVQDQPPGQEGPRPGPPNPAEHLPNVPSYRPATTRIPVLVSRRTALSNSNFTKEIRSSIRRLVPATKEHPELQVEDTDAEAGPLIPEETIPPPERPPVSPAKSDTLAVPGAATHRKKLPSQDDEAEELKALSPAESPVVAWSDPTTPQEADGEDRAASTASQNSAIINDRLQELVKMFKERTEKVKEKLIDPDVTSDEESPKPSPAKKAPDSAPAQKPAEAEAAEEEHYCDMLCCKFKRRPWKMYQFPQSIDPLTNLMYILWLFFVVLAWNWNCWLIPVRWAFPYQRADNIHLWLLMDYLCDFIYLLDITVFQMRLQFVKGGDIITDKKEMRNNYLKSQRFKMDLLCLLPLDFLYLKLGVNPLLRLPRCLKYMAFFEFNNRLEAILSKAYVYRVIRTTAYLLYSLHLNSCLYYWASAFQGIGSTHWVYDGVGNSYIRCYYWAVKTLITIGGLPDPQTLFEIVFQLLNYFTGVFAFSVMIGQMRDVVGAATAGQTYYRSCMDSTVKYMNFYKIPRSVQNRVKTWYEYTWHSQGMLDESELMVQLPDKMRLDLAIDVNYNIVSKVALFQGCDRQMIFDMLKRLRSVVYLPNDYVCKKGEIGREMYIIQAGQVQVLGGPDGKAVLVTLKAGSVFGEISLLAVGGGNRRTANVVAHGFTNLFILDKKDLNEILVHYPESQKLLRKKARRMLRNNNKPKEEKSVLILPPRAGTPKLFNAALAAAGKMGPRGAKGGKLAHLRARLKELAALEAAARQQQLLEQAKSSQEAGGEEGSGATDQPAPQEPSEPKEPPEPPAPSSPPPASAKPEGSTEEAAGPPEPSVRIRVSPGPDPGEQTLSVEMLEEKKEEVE

**Q.** What does the source list for `NCCCCCc1ccc(-c2nc3c(N)ncnc3n2[C@@H]2O[C@@H]3COP(=O)(O)O[C@H]3[C@H]2O)cc1` [Compound 12]?
**A.** effect on HCN2 current (activation speed and current amplitude) [1]: no effect; also recorded: almost ineffective; agonist efficacy ([2]; current maxima normalized to saturating cAMP (500 μM)): only a partial agonist; H a (Hill coefficient of activation) [2]: 2.23±0.05; EC50 [2]: 10700 ± 100 nM; H a (Hill coefficient of activation) [3]: 2.14±0.10; EC50 [3]: 16.3 ± 0.5 µM

**Q.** For `CC1(C)C2=C3C=C4C5=[N+](CCC4OC3CCN2c2ccc(CC(=O)NCCCCCc3ccc(Sc4nc6c(N)ncnc6n4[C@@H]4O[C@@H]6COP(=O)(O)O[C@H]6[C@H]4O)cc3)cc21)c1ccc(S(=O)(=O)[O-])cc1C5(C)C` (stereo partly shown) [Compound 7], which “H a (Hill coefficient of activation)” value [2] is on record?
**A.** Its value is 2.26±0.29.

**Q.** And the EC50 [2]?
**A.** Its EC50 is 900 ± 40 nM.

**Q.** What about the “H a (Hill coefficient of activation)” value [3] of the same compound?
**A.** The value was 1.39 and 1.39±0.07.

**Q.** What about the EC50 [3] of the same compound?
**A.** Its EC50 is 10 ± 0.5 µM.

**Q.** What about the “efficacy of channel activation” value ([3]; relative to maximum activation) of the same compound?
**A.** The value was “did not generate maximum activation at 100 μM”.

**Q.** `NCCCCCc1ccc(Sc2nc3c(N)ncnc3n2[C@@H]2O[C@@H]3COP(=O)(O)O[C@H]3[C@H]2O)cc1` [Compound 6] was tested. Which “effect on HCN2 current (activation speed and current amplitude)” value [1] did it give?
**A.** Its value is “accelerated the current and enhanced the amplitude”.

**Q.** What about the “effect at elevated concentrations” value ([2]; elevated concentrations) of the same compound?
**A.** The value was “inhibitory effect”.

**Q.** And the “H a (Hill coefficient of activation)” value [2]?
**A.** Its value is 2.25±0.08.

**Q.** What about the EC50 [2] of the same compound?
**A.** The EC50 was 750 ± 10 nM.

**Q.** And the “H a (Hill coefficient of activation)” value [3]?
**A.** The value was 2.51±0.05.

**Q.** What about the EC50 [3] of the same compound?
**A.** The EC50 was 4.72 ± 0.04 µM.

**Q.** With `NCCCCCc1ccc(-c2nc3c(=O)[nH]c(N)nc3n2[C@@H]2O[C@@H]3COP(=O)(O)O[C@H]3[C@H]2O)cc1` [Compound 13] as the compound, how does the “H a (Hill coefficient of activation)” value [2] read?
**A.** Its value is 1.74±0.11.

**Q.** What about the EC50 [2] of the same compound?
**A.** The EC50 was 7020 ± 260 nM.

**Q.** And the “H a (Hill coefficient of activation)” value [3]?
**A.** Its value is 2.28±0.28.

**Q.** And the EC50 [3]?
**A.** Its EC50 is 2.41 ± 0.15 µM.

**Q.** What does the source list for `NCCCCCc1ccc(Sc2nc3c(=O)[nH]c(N)nc3n2[C@@H]2O[C@@H]3COP(=O)(O)O[C@H]3[C@H]2O)cc1` [Compound 9]?
**A.** H a (Hill coefficient of activation) [2]: 1.55±0.08; EC50 [2]: 370 ± 10 nM; EC 50 (in words) [3]: nanomolar range; H a (Hill coefficient of activation) [3]: 2.52±0.08; EC50 [3]: 0.25 ± 0.01 µM

**Q.** `Nc1nc2c(ncn2[C@@H]2O[C@@H]3COP(=O)(O)O[C@H]3[C@H]2O)c(=O)[nH]1` [cGMP, reference compound] was tested. Which “H a (Hill coefficient of activation)” value [2] did it give?
**A.** The value was 2.11±0.23.

**Q.** And the EC50 [2]?
**A.** Its EC50 is 1360 ± 70 nM.

**Q.** What about the “H a (Hill coefficient of activation)” value [3] of the same compound?
**A.** The value was 2.48±0.05.

**Q.** And the EC50 [3]?
**A.** Its EC50 is 1.77 ± 0.02 µM.

**Q.** With `Nc1ncnc2c1ncn2[C@@H]1O[C@@H]2COP(=O)(O)O[C@H]2[C@H]1O` [cAMP, reference compound] as the compound, how does the “H a (Hill coefficient of activation)” value [2] read?
**A.** Its value is 2.08±0.12.
